From patent publication US10201610B2, “Interference peptides and use thereof” (The University of Western Australia, priority 2014, dated 2019)
Ends that are not written are not given here.

Legend:
[1] = system: SUM149PT cells overexpressing the EN1 cDNA (SUM149PT-EN1); assay: Cell Titer Glo cell viability assay in SUM149PT cells overexpressing the EN1 cDNA; format: cell-based, human; conditions: iPep624 72 hours
Method: In the neural system it has been proposed that EN1 protects neurons from mitochondrial complex I insults. Likewise, the inventors investigated whether EN1 could play a similar role in the basal-like breast cancer cell lines. The EN1 cDNA was overexpressed in SUM149PT cells using a lentiviral vector, and the transduced cells were treated with increasing concentrations of rotenone, a mitochondrial complex I toxin, and taxol, a […].
Plasmids expressing the EN1 cDNA (Genecopoeia, vector EX-T1021-Lv07) or EN1 shRNAs (Open Biosystems, pLKO-EN1) were transfected with Gagpol-, VSVG-, and RSV-REV-coding plasmids in HEK 293T cells using Lipofectamine and Plus Reagent cationic lipids (Invitrogen, Carlsbad, Calif.) and transduction of breast cells was performed as described in Beltran, A. S. et al. Breast Cancer Res 13, R94 (2011).
(§1) All peptides were synthetized at the UNC High-Throughput Peptide Synthesis and Array Facility at UNC. Taxol, Rotenone and Halofuginone (Sigma-Aldrich, St Louis, Mo.) were dissolved in DMSO. A total of […] or 1×10^3 breast cells for peptide and drug treatment respectively, were seeded in 96-well plates. Cells were exposed for 8 hours to the peptide and 48 to 72 hours for drug treatment. The cell viability after peptide/drug treatment was assayed with the Cell Titer Glo (CTG) assay (Promega, Madison, Wis., USA).

HUMEC = assay: Cell Titer Glo cell viability assay, breast cancer cell line panel; format: cell-based; conditions: 8 hours
Method: (§2) To test the specificity of the EN1-iPep in cell lines expressing EN1, the inventors delivered the iPeps into a panel of breast cancer cell lines expressing different amounts of EN1.
as §1

MCF7 = assay: as above; format: cell-based; conditions: MCF7, 8 hours
Method: as §2, §1

MDA-MB-231 = assay: as above; format: cell-based; conditions: MDA-MB-231, 8 hours
Method: as §2, §1

SUM102 = assay: as above; format: cell-based; conditions: SUM102, 8 hours
Method: as §2, §1

SUM159PT = assay: as above; format: cell-based; conditions: 8 hours
Method: as §2, §1

SUM229 = assay: as above; format: cell-based; conditions: SUM229, 8 hours
Method: as §2, §1

[2] = biological target: T1, Glutamyl-Prolyl tRNA synthetase (EPRS) (Homo sapiens, UniProt P07814); assay: Affinity capture immunoprecipitation with biotinylated iPeps, EPRS detection; format: binding; conditions: biotinylated iPep as bait, versus control peptide iPep624ΔHEX
T1 construct: endogenous in cells; host or cells: SUM149PT total protein extract
T1 sequence (P07814 whole entry): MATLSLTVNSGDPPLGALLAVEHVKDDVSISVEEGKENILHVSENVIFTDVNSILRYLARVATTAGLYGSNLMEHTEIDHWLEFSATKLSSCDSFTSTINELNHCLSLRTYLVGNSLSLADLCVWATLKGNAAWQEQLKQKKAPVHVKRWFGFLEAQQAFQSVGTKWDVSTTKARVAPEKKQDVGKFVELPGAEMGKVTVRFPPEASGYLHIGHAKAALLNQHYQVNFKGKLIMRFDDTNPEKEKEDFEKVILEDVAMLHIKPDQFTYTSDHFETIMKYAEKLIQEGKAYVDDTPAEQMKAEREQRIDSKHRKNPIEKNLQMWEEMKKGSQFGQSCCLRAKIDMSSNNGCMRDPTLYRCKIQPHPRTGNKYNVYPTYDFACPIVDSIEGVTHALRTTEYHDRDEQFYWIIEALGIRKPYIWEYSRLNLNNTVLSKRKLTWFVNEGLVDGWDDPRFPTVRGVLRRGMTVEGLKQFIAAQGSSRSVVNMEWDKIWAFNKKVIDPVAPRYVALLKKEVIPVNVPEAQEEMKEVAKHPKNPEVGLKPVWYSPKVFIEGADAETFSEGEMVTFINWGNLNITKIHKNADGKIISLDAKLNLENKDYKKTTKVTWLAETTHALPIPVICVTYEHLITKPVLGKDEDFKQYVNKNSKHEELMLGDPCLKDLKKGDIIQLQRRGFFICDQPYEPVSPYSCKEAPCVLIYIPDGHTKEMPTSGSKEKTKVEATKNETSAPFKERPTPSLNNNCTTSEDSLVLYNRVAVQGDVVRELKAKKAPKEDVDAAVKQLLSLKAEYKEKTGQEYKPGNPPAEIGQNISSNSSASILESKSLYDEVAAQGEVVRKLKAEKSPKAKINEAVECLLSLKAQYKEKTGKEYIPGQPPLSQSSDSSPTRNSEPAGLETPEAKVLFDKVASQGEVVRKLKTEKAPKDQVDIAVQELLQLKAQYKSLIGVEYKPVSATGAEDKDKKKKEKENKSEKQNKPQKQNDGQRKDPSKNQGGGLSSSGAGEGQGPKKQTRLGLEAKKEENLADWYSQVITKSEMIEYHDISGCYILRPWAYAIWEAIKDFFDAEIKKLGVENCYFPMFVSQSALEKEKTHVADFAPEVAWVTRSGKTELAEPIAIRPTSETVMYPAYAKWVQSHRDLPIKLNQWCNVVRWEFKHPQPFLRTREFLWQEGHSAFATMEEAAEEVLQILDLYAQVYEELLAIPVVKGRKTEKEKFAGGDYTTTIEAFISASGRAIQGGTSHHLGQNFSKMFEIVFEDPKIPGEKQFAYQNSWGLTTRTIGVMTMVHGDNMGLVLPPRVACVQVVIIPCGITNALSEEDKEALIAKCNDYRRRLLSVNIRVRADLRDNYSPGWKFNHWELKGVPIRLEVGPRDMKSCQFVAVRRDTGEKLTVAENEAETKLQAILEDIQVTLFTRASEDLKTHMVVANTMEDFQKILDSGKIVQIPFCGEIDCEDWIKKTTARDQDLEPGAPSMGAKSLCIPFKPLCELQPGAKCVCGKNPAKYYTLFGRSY
Description: To investigate the binding partners of the iPeps in cancer cells, the inventors carried out affinity capture immunoprecipitation experiments using the biotinylated active iPep624 as bait, and the iPep624ΔHEX as negative control. They used total protein extracts from SUM149PT cells to capture endogenous proteins able to bind these peptides in vitro. Elutes were loaded in a 1D-SDS PAGE gel to visualize the enrichment of individual proteins. […] In addition, overexpression of EN1 cDNA into two different breast cell lines confirmed the interaction of the full length EN1 with the endogenous EPRS inside the cells (FIG. 6c). […]
The iPep624 and iPep624ΔHEX were coupled to a C-terminal biotin and immobilized in streptavidin-coated beads. […] Detection was performed with ECL Detection System (GE Healthcare) and quantitated using Image J v1.46 (ImageJ, NCBI).
Proteins were eluted from the streptavidin beads coated with biotinylated iPep624 or iPep624ΔHEX, resuspended with SDS PAGE sample buffer and applied to SDS-PAGE (10% acrylamide; FIG. 10). Gels were stained with Coomassie brilliant blue and select bands unique to the EN1 immunoprecipitates were excised, digested with trypsin, and the peptides were extracted and analyzed using a MALDI-TOF/TOF mass spectrometer (AB Sciex 4800 Plus). […]

Q: KKKRKVTDSQQPLVWPAWVYCTRYSDRPS [iPep624] was tested. Which “cell viability defect after ectopic transfection of the EN1 cDNA” value [1] did it give?
A: rescued

Q: And the cell viability (HUMEC)?
A: no effect on cell viability

Q: And the cell viability (MCF7)?
A: no effect on cell viability

Q: And the cell viability (MDA-MB-231)?
A: no effect on cell viability

Q: What about the cell viability (SUM102) of the same sequence?
A: decreased cell viability

Q: And the cell viability (SUM159PT)?
A: decreased cell viability

Q: What about the cell viability (SUM229) of the same sequence?
A: decreased cell viability

Q: And the “binding of EPRS from SUM149PT extracts” value [2]?
A: preferential binding interaction
